Laboratory results from article PMC3472760, “New 14-Membered Cyclopeptide Alkaloids from Zizyphus oxyphylla Edgew” (International Journal of Molecular Sciences, 2012).

Tests used:
[1] = system: Escherchia coli (ATCC 25922); test: Antibacterial MIC, microplate dilution with tetrazolium violet; format: cell-based, Escherichia coli; details: compounds in DMSO serially diluted with sterile water in microplates, overnight, 37 °C, 100% relative humidity, tetrazolium violet read-out, lowest concentration inhibiting growth
Experimental: (§1) All compounds were screened for antibacterial activity against Escherchia coli (ATCC 25922), Bacillus subtilis (ATCC 6633), Shigella flexeneri (clinical isolate), Staphylococcus aureus (ATCC 25923), Pseudomonas aeruginosa (ATCC 27853), and Salmonella typhi (ATCC 19430), according to the method as reported previously. The disc diffusion technique was used to determine the antibacterial activity of the test compounds. The compounds were dissolved in DMSO to obtain a 10 mg/mL solution. A known volume ([…]) of the solution was applied on to the sterilized filter paper discs with the help of a micropipette. The discs were dried at room temperature overnight and stored in sterile dry containers. Discs, soaked with […] of DMSO, and air dried at room temperature, were used as negative control. Bacterial cultures were grown in a nutrient broth medium at 37 °C overnight and spread on to solidified nutrient agar medium in Petri plates using sterilized cotton swabs in a standard microbiological working environment. Test and control discs were then applied to the solidified medium surface with the help of sterilized forceps. The plates were incubated at 37 °C for 12–15 h. The results were recorded by measuring the zone of inhibition in mm against each compound. Impenem was used as standard drug. MIC was calculated as previously reported. Compounds were briefly dissolved in DMSO and serially diluted with sterile water in microplates in a laminar flow cabinet. The same volume of an actively rowing culture of the test bacteria was added to the different wells and cultures were grown overnight in 100% relative humidity at 37 °C. The next morning, tetrazolium violet was added to all the wells. Growth was indicated by a violet color of the culture. The lowest concentration of the test solution that led to an inhibition of growth was taken as the MIC. The negative control DMSO had no influence on the growth at the highest concentration used. Impenem was used as controls for comparison (See Table 1).

[2] = system: Bacillus subtilis (ATCC 6633); test: as above; format: cell-based; details: compounds in DMSO serially diluted with sterile water in microplates, overnight, 37 °C, 100% relative humidity, tetrazolium violet read-out
Experimental: as §1

[3] = system: Shigella flexeneri (clinical isolate); test: as above; format: cell-based; details: compounds in DMSO serially diluted with sterile water in microplates, overnight, 37 °C, 100% relative humidity, tetrazolium violet read-out
Experimental: as §1

[4] = system: Salmonella typhi (ATCC 19430); test: as above; format: cell-based; details: compounds in DMSO serially diluted with sterile water in microplates, overnight, 37 °C, 100% relative humidity, tetrazolium violet read-out
Experimental: as §1

[5] = system: Staphylococcus aureus (ATCC 25923); test: as above; format: cell-based; details: compounds in DMSO serially diluted with sterile water in microplates, overnight, 37 °C, 100% relative humidity, tetrazolium violet read-out
Experimental: as §1

[6] = system: Pseudomonas aeruginosa (ATCC 27853); test: as above; format: cell-based; details: compounds in DMSO serially diluted with sterile water in microplates, overnight, 37 °C, 100% relative humidity, tetrazolium violet read-out
Experimental: as §1

[7] = system: tested bacterial pathogens; test: Antibacterial activity, overall verdict over the panel; format: cell-based; details: verdict over the six tested bacterial pathogens of Table 2
Experimental: as §1

C[C@@H](O)[C@H]1C(=O)N2C(C(=O)O)=C(SCCN=CN)C[C@H]12 [Standard, Impenem, reference compound]
Minimum Inhibitory Concentration (MIC), Escherichia coli [1]: 0.0002 µg/mL | Minimum Inhibitory Concentration (MIC), Bacillus subtilis [2]: 0.0005 µg/mL | Minimum Inhibitory Concentration (MIC), Shigella flexeneri [3]: 0.0003 µg/mL | Minimum Inhibitory Concentration (MIC), Salmonella typhi [4]: 0.0014 µg/mL | Minimum Inhibitory Concentration (MIC), Staphylococcus aureus [5]: 0.0009 µg/mL | Minimum Inhibitory Concentration (MIC), Pseudomonas aeruginosa [6]: 0.0021 µg/mL

Oxyphylline C [Compound 5]
Minimum Inhibitory Concentration (MIC), Escherichia coli [1]: 10 µg/mL | Minimum Inhibitory Concentration (MIC), Bacillus subtilis [2]: 50 µg/mL | Minimum Inhibitory Concentration (MIC), Shigella flexeneri [3]: 50 µg/mL | Minimum Inhibitory Concentration (MIC), Salmonella typhi [4]: 50 µg/mL | Minimum Inhibitory Concentration (MIC), Staphylococcus aureus [5]: 10 µg/mL | Minimum Inhibitory Concentration (MIC), Pseudomonas aeruginosa [6]: 50 µg/mL | Antibacterial activity (in words) [7]: low antibacterial activities

Oxyphylline D [Compound 1]
Minimum Inhibitory Concentration (MIC), Escherichia coli [1]: 10 µg/mL | Minimum Inhibitory Concentration (MIC), Bacillus subtilis [2]: 25 µg/mL | Minimum Inhibitory Concentration (MIC), Shigella flexeneri [3]: 50 µg/mL | Minimum Inhibitory Concentration (MIC), Salmonella typhi [4]: 25 µg/mL | Minimum Inhibitory Concentration (MIC), Staphylococcus aureus [5]: 25 µg/mL | Minimum Inhibitory Concentration (MIC), Pseudomonas aeruginosa [6]: 50 µg/mL | Antibacterial activity (in words) [7]: low antibacterial activities

CCC(C)C1NC(=O)C2C(CCN2C(=O)C(Cc2c[nH]c3ccccc23)N(C)C)Oc2ccc(OC)c(c2)/C=C/NC1=O (stereo not drawn) [Compound 3, nummularin-R]
Minimum Inhibitory Concentration (MIC), Escherichia coli [1]: 25 µg/mL | Minimum Inhibitory Concentration (MIC), Bacillus subtilis [2]: 10 µg/mL | Minimum Inhibitory Concentration (MIC), Shigella flexeneri [3]: 100 µg/mL | Minimum Inhibitory Concentration (MIC), Salmonella typhi [4]: 50 µg/mL | Minimum Inhibitory Concentration (MIC), Staphylococcus aureus [5]: 50 µg/mL | Minimum Inhibitory Concentration (MIC), Pseudomonas aeruginosa [6]: 100 µg/mL | Antibacterial activity (in words) [7]: low antibacterial activities

nummularin-C [Compound 2]
Minimum Inhibitory Concentration (MIC), Escherichia coli [1]: 10 µg/mL | Minimum Inhibitory Concentration (MIC), Bacillus subtilis [2]: 25 µg/mL | Minimum Inhibitory Concentration (MIC), Shigella flexeneri [3]: 100 µg/mL | Minimum Inhibitory Concentration (MIC), Salmonella typhi [4]: 10 µg/mL | Minimum Inhibitory Concentration (MIC), Staphylococcus aureus [5]: 25 µg/mL | Minimum Inhibitory Concentration (MIC), Pseudomonas aeruginosa [6]: 100 µg/mL | Antibacterial activity (in words) [7]: low antibacterial activities

Oxyphylline B [Compound 4]
Minimum Inhibitory Concentration (MIC), Escherichia coli [1]: 5 µg/mL | Minimum Inhibitory Concentration (MIC), Shigella flexeneri [3]: 25 µg/mL | Minimum Inhibitory Concentration (MIC), Salmonella typhi ([4]; listed as Oxyphylline B (4)): 50 µg/mL | Minimum Inhibitory Concentration (MIC), Staphylococcus aureus [5]: 25 µg/mL | Minimum Inhibitory Concentration (MIC), Pseudomonas aeruginosa [6]: 50 µg/mL
